In ChEMBL document CHEMBL5518248, “Design, Synthesis, and Biological Evaluation of Novel Arylomycins against Multidrug-Resistant Gram-Negative Bacteria” (J Med Chem, 2024):

Experiments:
Escherichia coli [1] = experiment: Antibacterial activity against Escherichia coli 14-4 assessed as inhibition of bacterial growth measured after 18 to 20 hrs by broth microdilution method; assay type: functional; settings: time 18-20 hrs
[2] = Cytotoxicity against HEK293T cells assessed as inhibition of cell growth incubated for 24 hrs by CCK8 method; assay type: toxicity, cell-based, HEK-293T; settings: human
Pseudomonas aeruginosa [3] = experiment: Antibacterial activity against Pseudomonas aeruginosa 17-1 assessed as inhibition of bacterial growth measured after 18 to 20 hrs by broth microdilution method; assay type: functional; settings: time 18-20 hrs
Klebsiella pneumoniae [4] = experiment: Antibacterial activity against Klebsiella pneumoniae 15-1 assessed as inhibition of bacterial growth measured after 18 to 20 hrs by broth microdilution method; assay type: functional; settings: time 18-20 hrs
Jurkat [5] = experiment: Cytotoxicity against human Jurkat cells assessed as inhibition of cell growth at 100 uM incubated for 24 hrs by CCK8 method relative to control; assay type: functional
Klebsiella pneumoniae [6] = experiment: Antibacterial activity against Klebsiella pneumoniae 15-4 assessed as inhibition of bacterial growth measured after 18 to 20 hrs by broth microdilution method; assay type: functional; settings: time 18-20 hrs
Klebsiella pneumoniae [7] = experiment: Antibacterial activity against Klebsiella pneumoniae 15-5 assessed as inhibition of bacterial growth measured after 18 to 20 hrs by broth microdilution method; assay type: functional; settings: time 18-20 hrs
HepG2 [8] = experiment: Cytotoxicity against human HepG2 cells assessed as inhibition of cell growth at 100 uM incubated for 24 hrs by CCK8 method relative to control; assay type: functional
Escherichia coli [9] = experiment: Antibacterial activity against Escherichia coli ATCC 35218 assessed as inhibition of bacterial growth measured after 18 to 20 hrs by broth microdilution method; assay type: functional; settings: time 18-20 hrs
HepG2 [10] = experiment: Cytotoxicity against human HepG2 cells assessed as inhibition of cell growth incubated for 24 hrs by CCK8 method; assay type: functional, cell-based; settings: HepG2, 24 h
Escherichia coli [11] = experiment: Antibacterial activity against Escherichia coli 14-2 assessed as inhibition of bacterial growth measured after 18 to 20 hrs by broth microdilution method; assay type: functional; settings: time 18-20 hrs
[12] = Cytotoxicity against HEK293T cells assessed as inhibition of cell growth at 100 uM incubated for 24 hrs by CCK8 method relative to control; assay type: toxicity, cell-based, HEK-293T; settings: human
Pseudomonas aeruginosa [13] = experiment: Antibacterial activity against Pseudomonas aeruginosa 19-5 assessed as inhibition of bacterial growth measured after 18 to 20 hrs by broth microdilution method; assay type: functional; settings: time 18-20 hrs
Acinetobacter baumannii [14] = experiment: Antibacterial activity against Acinetobacter baumannii 17-8 assessed as inhibition of bacterial growth measured after 18 to 20 hrs by broth microdilution method; assay type: functional; settings: time 18-20 hrs
Jurkat [15] = experiment: Cytotoxicity against human Jurkat cells assessed as inhibition of cell growth incubated for 24 hrs by CCK8 method; assay type: functional, cell-based
Acinetobacter baumannii [16] = experiment: Antibacterial activity against Acinetobacter baumannii 17-2 assessed as inhibition of bacterial growth measured after 18 to 20 hrs by broth microdilution method; assay type: functional; settings: time 18-20 hrs

Compound | MIC (Escherichia coli [1]) [µg/mL] | IC50 at 24 h [2] [µM] | MIC (Pseudomonas aeruginosa [3]) [µg/mL] | MIC (Klebsiella pneumoniae [4]) [µg/mL] | inhibition at 100 µM (Jurkat [5]) [%] | MIC (Klebsiella pneumoniae [6]) [µg/mL] | MIC (Klebsiella pneumoniae [7]) [µg/mL] | inhibition at 100 µM (HepG2 [8]) [%] | MIC (Escherichia coli [9]) [µg/mL] | IC50 (HepG2 [10]) [µM] | MIC (Escherichia coli [11]) [µg/mL] | inhibition at 24 h, 100 µM [12] [%] | MIC (Pseudomonas aeruginosa [13]) [µg/mL] | MIC (Acinetobacter baumannii [14]) [µg/mL] | IC50 (Jurkat [15]) [µM] | MIC (Acinetobacter baumannii [16]) [µg/mL]
Cc1nc(-c2ccc(CSSC(C)(C)C)cc2)ncc1C(=O)N[C@@H](CCN)C(=O)N(C)[C@@H]1C(=O)N[C@@H](C)C(=O)N[C@H](C(=O)NCC#N)Cc2ccc(OCCN)c(c2)-c2cc1ccc2OCCN.O=C(O)C(F)(F)F.O=C(O)C(F)(F)F.O=C(O)C(F)(F)F.O=C(O)C(F)(F)F | ≤ 0.03 | > 100 | 4 | ≤ 0.03 | 34.6 | ≤ 0.03 | ≤ 0.03 | 28.4 | ≤ 0.03 | > 100 | ≤ 0.03 | 43 | 4 | 0.125 | > 100 | 0.125
Cc1nc(-c2ccc(CSSC3CCCC3)cc2)ncc1C(=O)N[C@@H](CCN)C(=O)N(C)[C@@H]1C(=O)N[C@@H](C)C(=O)N[C@H](C(=O)NCC#N)Cc2ccc(OCCN)c(c2)-c2cc1ccc2OCCN.O=C(O)C(F)(F)F.O=C(O)C(F)(F)F.O=C(O)C(F)(F)F.O=C(O)C(F)(F)F | ≤ 0.03 | > 100 | 4 | 0.125 | 35.4 | 0.06 | 0.06 | 3.22 | ≤ 0.03 | > 100 | 0.125 | 42.6 | 4 | 0.25 | > 100 | 1
CCCSSc1ccc(-c2ncc(C(=O)N[C@@H](CCN)C(=O)N(C)[C@@H]3C(=O)N[C@@H](C)C(=O)N[C@H](C(=O)NCC#N)Cc4ccc(OCCN)c(c4)-c4cc3ccc4OCCN)c(C)n2)cc1.O=C(O)C(F)(F)F.O=C(O)C(F)(F)F.O=C(O)C(F)(F)F.O=C(O)C(F)(F)F | ≤ 0.03 | > 100 | 4 | ≤ 0.03 | 42.4 | 0.125 | 0.06 | -6.72 | ≤ 0.03 | > 100 | ≤ 0.03 | 30.6 | 4 | 0.5 | > 100 | 1
Cc1nc(-c2ccc(C(C)(C)C)cc2)ncc1C(=O)N[C@@H](CCN)C(=O)N(C)[C@@H]1C(=O)N[C@@H](C)C(=O)N[C@H](C(=O)NNCC#N)Cc2ccc(OCCN)c(c2)-c2cc1ccc2OCCN.Cl.Cl.Cl.Cl | 0.5 |  | > 64 | 2 |  | 2 | 1 |  | 0.5 |  | 1 |  | > 64 | 8 |  | 32
CSSCc1ccc(-c2ncc(C(=O)N[C@@H](CCN)C(=O)N(C)[C@@H]3C(=O)N[C@@H](C)C(=O)N[C@H](C(=O)NCC#N)Cc4ccc(OCCN)c(c4)-c4cc3ccc4OCCN)c(C)n2)cc1.O=C(O)C(F)(F)F.O=C(O)C(F)(F)F.O=C(O)C(F)(F)F.O=C(O)C(F)(F)F | 0.5 |  | 64 | 0.25 |  | 0.5 | 0.5 |  | 0.06 |  | 0.25 |  | 64 | 1 |  | 4
Cc1nc(-c2ccc(C(C)(C)C)cc2)ncc1C(=O)N[C@@H](CCN)C(=O)N(C)[C@@H]1C(=O)N[C@@H](C)C(=O)N[C@H](NC(=O)NC#N)Cc2ccc(OCCN)c(c2)-c2cc1ccc2OCCN.O=C(O)C(F)(F)F.O=C(O)C(F)(F)F.O=C(O)C(F)(F)F.O=C(O)C(F)(F)F | 64 |  | > 64 | 64 |  | 64 | 64 |  | 32 |  | 64 |  | > 64 | > 64 |  | > 64
Cc1nc(-c2ccc(CSSC3CCCCC3)cc2)ncc1C(=O)N[C@@H](CCN)C(=O)N(C)[C@@H]1C(=O)N[C@@H](C)C(=O)N[C@H](C(=O)NCC#N)Cc2ccc(OCCN)c(c2)-c2cc1ccc2OCCN.O=C(O)C(F)(F)F.O=C(O)C(F)(F)F.O=C(O)C(F)(F)F.O=C(O)C(F)(F)F | 0.125 |  | 4 | 0.5 |  | 0.25 | 0.25 |  | ≤ 0.03 |  | ≤ 0.03 |  | 4 | 0.5 |  | 1
Cc1nc(-c2ccc(C(C)(C)C)cc2)ncc1CN[C@@H](CCN)C(=O)N(C)[C@@H]1C(=O)N[C@@H](C)C(=O)N[C@H](C(=O)NCC#N)Cc2ccc(OCCN)c(c2)-c2cc1ccc2OCCN.O=C(O)C(F)(F)F.O=C(O)C(F)(F)F.O=C(O)C(F)(F)F.O=C(O)C(F)(F)F | 2 |  | 64 | 16 |  | 32 | 16 |  | 0.5 |  | 4 |  | > 64 | 2 |  | 8
